US20090176811A1, “Substituted 5,6,7,8-Tetrahydro-pyrido[4,3-d]pyrimidine-2-yl Compounds and 5,6,7,8-Tetrahydro-quinazoline-2-yl Compounds” (GRUENENTHAL GmbH, priority 2004, published 2009)

System: batrachotoxin (BTX) binding site of the sodium channel
Assay: Affinity for the batrachotoxin (BTX) binding site of the sodium channel ([3H]-Batrachotoxinin A20 benzoate, rat cerebrocortex synaptosomes)
Settings: [3H]-Batrachotoxinin A20 benzoate 10 nM, test concentration not given

Row | SMILES | BTX inhibition
1 | CCOc1ccccc1C(=O)Nc1ncc2c(n1)CCN(S(=O)(=O)c1ccccc1C(=O)OC)C2 [Example 82, 2-[2-(2-ethoxy-benzoylamino)-7,8-dihydro-5H-pyrido[4,3-d]pyrimidine-6-sulfonyl]-benzoic acid methyl ester] | 38
2 | Cc1nc(C)c(S(=O)(=O)N2CCc3nc(NC(=O)c4ccc(Cl)cc4)ncc3C2)s1 [Example 79, 4-chloro-N-[6-(2,4-dimethyl-thiazole-5-sulfonyl)-5,6,7,8-tetrahydro-pyrido[4,3-d]pyrimidin-2-yl]-benzamide] | 34
3 | Cc1ccc(C(=O)Nc2ncc3c(n2)CCN(C(=O)c2ccc(SC(F)(F)F)cc2)C3)cc1 [Example 148, 4-methyl-N-[6-(4-trifluoromethylsulfanyl-benzoyl)-5,6,7,8-tetrahydro-pyrido[4,3-d]pyrimidin-2-yl]-benzamide] | 85
4 | O=C(Nc1ncc2c(n1)CCN(C(=O)CCC1CCCC1)C2)c1ccncc1 [Example 132, N-[6-(3-cyclopentyl-propionyl)-5,6,7,8-tetrahydro-pyrido[4,3-d]pyrimidin-2-yl]-isonicotinamide] | 72
5 | CCCC(=O)Nc1ncc2c(n1)CCC(NC(=O)c1ccc(Cc3ccccc3)o1)C2 (stereo not shown) [Example 133, 5-benzyl-furan-2-carboxylic acid (2-butyrylamino-5,6,7,8-tetrahydro-quinazolin-6-yl)-amide] | 39
6 | COc1cccc(C(=O)Nc2ncc3c(n2)CCN(C(=O)c2cccc(OC(F)(F)F)c2)C3)c1 [Example 199, 3-methoxy-N-[6-(3-trifluoromethoxy-benzoyl)-5,6,7,8-tetrahydro-pyrido[4,3-d]pyrimidin-2-yl]-benzamide] | 48
7 | O=C(Nc1ncc2c(n1)CCN(S(=O)(=O)c1ccc(Cl)s1)C2)c1cccc2ccccc12 [Example 117, naphthalene-1-carboxylic acid [6-(5-chloro-thiophene-2-sulfonyl)-5,6,7,8-tetrahydro-pyrido[4,3-d]pyrimidin-2-yl]-amide] | 37
8 | Cc1ccc(C(=O)Nc2ncc3c(n2)CCN(C(=O)COc2cccc(Cl)c2)C3)cc1 [Example 189, N-{6-[2-(3-chloro-phenoxy)-acetyl]-5,6,7,8-tetrahydro-pyrido[4,3-d]pyrimidin-2-yl}-4-methyl-benzamide] | 55
9 | CCc1ccc(C(=O)Nc2ncc3c(n2)CCN(S(=O)(=O)c2ccc4c(c2)CN(C(=O)C(F)(F)F)CC4)C3)cc1 [Example 157, 4-ethyl-N-{6-[2-(2,2,2-trifluoro-acetyl)-1,2,3,4-tetrahydro-isoquinoline-7-sulfonyl]-5,6,7,8-tetrahydro-pyrido[4,3-d]pyrimidin-2-yl}-benzamide] | 63
10 | O=C(Nc1ncc2c(n1)CCN(S(=O)(=O)c1ccc(Cl)cc1)C2)c1ccc(Cl)c(Cl)c1 [Example 71, 3,4-dichloro-N-[6-(4-chloro-benzenesulfonyl)-5,6,7,8-tetrahydro-pyrido[4,3-d]pyrimidin-2-yl]-benzamide] | 69
11 | O=C(Nc1ncc2c(n1)CCN(S(=O)(=O)c1cccc(Br)c1)C2)c1cccc(Cl)c1 [Example 125, N-[6-(3-bromo-benzenesulfonyl)-5,6,7,8-tetrahydro-pyrido[4,3-d]pyrimidin-2-yl]-3-chloro-benzamide] | 66
12 | O=C(Nc1ncc2c(n1)CCN(C(=O)c1ccc(F)cc1F)C2)c1ccc(Cl)cc1 [Example 152, 4-chloro-N-[6-(2,4-difluoro-benzoyl)-5,6,7,8-tetrahydro-pyrido[4,3-d]pyrimidin-2-yl]-benzamide] | 55
13 | CCOc1ccccc1C(=O)Nc1ncc2c(n1)CCN(C(=O)c1sccc1Cl)C2 [Example 145, N-[6-(3-chloro-thiophene-2-carbonyl)-5,6,7,8-tetrahydro-pyrido[4,3-d]pyrimidin-2-yl]-2-ethoxy-benzamide] | 46
14 | Cc1ccc(C(=O)N2CCc3nc(NC(=O)c4ccc(C(C)(C)C)cc4)ncc3C2)cc1[N+](=O)[O-] [Example 92, 4-tert-butyl-N-[6-(4-methyl-3-nitro-benzoyl)-5,6,7,8-tetrahydro-pyrido[4,3-d]pyrimidin-2-yl]-benzamide] | 75
15 | Cc1cc(C)c(C)c(S(=O)(=O)N2CCc3nc(NC(=O)c4cccs4)ncc3C2)c1C [Example 99, thiophene-2-carboxylic acid [6-(2,3,5,6-tetramethyl-benzenesulfonyl)-5,6,7,8-tetrahydro-pyrido[4,3-d]pyrimidin-2-yl]-amide] | 78
16 | O=C(Nc1ncc2c(n1)CCN(S(=O)(=O)c1cccs1)C2)c1ccc(F)c(F)c1 [Example 72, 3,4-difluoro-N-[6-(thiophene-2-sulfonyl)-5,6,7,8-tetrahydro-pyrido[4,3-d]pyrimidin-2-yl]-benzamide] | 31
17 | O=C(Nc1ncc2c(n1)CCN(C(=O)C1=Cc3ccccc3OC1)C2)c1ccc(F)c(F)c1 [Example 175, N-[6-(2H-chromene-3-carbonyl)-5,6,7,8-tetrahydro-pyrido[4,3-d]pyrimidin-2-yl]-3,4-difluoro-benzamide] | 49

Row | SMILES | BTX inhibition
18 | O=C(Nc1ncc2c(n1)CCN(C(=O)c1cccc(F)c1)C2)c1cccc2ccccc12 [Example 183, naphthalene-1-carboxylic acid [6-(3-fluoro-benzoyl)-5,6,7,8-tetrahydro-pyrido[4,3-d]pyrimidin-2-yl]-amide] | 31
19 | Cc1ccc(S(=O)(=O)N2CCc3nc(NC(=O)c4cccc(F)c4)ncc3C2)cc1 [Example 143, 3-fluoro-N-[6-(toluene-4-sulfonyl)-5,6,7,8-tetrahydro-pyrido[4,3-d]pyrimidin-2-yl]-benzamide] | 61
20 | Cc1cc(C)c(S(=O)(=O)N2CCc3nc(NC(=O)c4ccc(Cl)c(Cl)c4)ncc3C2)c(C)c1 [Example 95, 3,4-dichloro-N-[6-(2,4,6-trimethyl-benzenesulfonyl)-5,6,7,8-tetrahydro-pyrido[4,3-d]pyrimidin-2-yl]-benzamide] | 77
21 | O=C(Nc1ncc2c(n1)CCN(C(=O)c1c(F)cccc1Cl)C2)c1cccc(Cl)c1 [Example 127, 3-chloro-N-[6-(2-chloro-6-fluoro-benzoyl)-5,6,7,8-tetrahydro-pyrido[4,3-d]pyrimidin-2-yl]-benzamide] | 30
22 | CCc1ccc(C(=O)Nc2ncc3c(n2)CCN(S(=O)(=O)c2ccc(OC)cc2)C3)cc1 [Example 172, 4-ethyl-N-[6-(4-methoxy-benzenesulfonyl)-5,6,7,8-tetrahydro-pyrido[4,3-d]pyrimidin-2-yl]-benzamide] | 57
23 | Cc1ccc([N+](=O)[O-])cc1S(=O)(=O)N1CCc2nc(NC(=O)c3ccccc3F)ncc2C1 [Example 150, 2-fluoro-N-[6-(2-methyl-5-nitro-benzenesulfonyl)-5,6,7,8-tetrahydro-pyrido[4,3-d]pyrimidin-2-yl]-benzamide] | 49
24 | O=C(Nc1ncc2c(n1)CCN(C(=O)c1sc3ccccc3c1Cl)C2)c1ccccc1 [Example 120, N-[6-(3-chloro-benzo[b]thiophene-2-carbonyl)-5,6,7,8-tetrahydro-pyrido[4,3-d]pyrimidin-2-yl]-benzamide] | 48
25 | Cc1oc(-c2ccccc2)cc1C(=O)N1CCc2nc(NC(=O)c3ccccc3F)ncc2C1 [Example 137, 2-fluoro-N-[6-(2-methyl-5-phenyl-furan-3-carbonyl)-5,6,7,8-tetrahydro-pyrido[4,3-d]pyrimidin-2-yl]-benzamide] | 43
26 | O=C(Nc1ncc2c(n1)CCC(NS(=O)(=O)c1cc(Cl)sc1Cl)C2)c1cccs1 (stereo not shown) [Example 180, thiophene-2-carboxylic acid [6-(2,5-dichloro-thiophene-3-sulfonylamino)-5,6,7,8-tetrahydro-quinazolin-2-yl]-amide] | 46
27 | CCCCC(C)CCC(=O)N1CCc2nc(NC(=O)c3cccc4ccccc34)ncc2C1 (stereo not shown) [Example 193, naphthalene-1-carboxylic acid [6-(4-methyl-octanoyl)-5,6,7,8-tetrahydro-pyrido[4,3-d]pyrimidin-2-yl]-amide] | 84
28 | Cc1cccc(C(=O)Nc2ncc3c(n2)CCN(S(=O)(=O)c2cccc(C)c2)C3)c1 [Example 116, 3-methyl-N-[6-(toluene-3-sulfonyl)-5,6,7,8-tetrahydro-pyrido[4,3-d]pyrimidin-2-yl]-benzamide] | 53
29 | CCc1ccc(C(=O)Nc2ncc3c(n2)CCN(C(=O)c2ccc(-n4cccn4)cc2)C3)cc1 [Example 74, 4-ethyl-N-[6-(4-pyrazol-1-yl-benzoyl)-5,6,7,8-tetrahydro-pyrido[4,3-d]pyrimidin-2-yl]-benzamide] | 66
30 | O=C(CCc1ccccc1)NC1CCc2nc(NC(=O)c3ccc(F)cc3)ncc2C1 (stereo not shown) [Example 94, 4-fluoro-N-[6-(3-phenyl-propionylamino)-5,6,7,8-tetrahydro-quinazolin-2-yl]-benzamide] | 47
31 | O=C(Nc1ncc2c(n1)CCN(C(=O)C1CCc3ccccc3C1)C2)c1cccc(F)c1 (stereo not shown) [Example 141, 3-fluoro-N-[6-(1,2,3,4-tetrahydro-naphthalene-2-carbonyl)-5,6,7,8-tetrahydro-pyrido[4,3-d]pyrimidin-2-yl]-benzamide] | 63
32 | COc1ccccc1C(=O)Nc1ncc2c(n1)CCN(S(=O)(=O)c1ccc(Cl)s1)C2 [Example 86, N-[6-(5-chloro-thiophene-2-sulfonyl)-5,6,7,8-tetrahydro-pyrido[4,3-d]pyrimidin-2-yl]-2-methoxy-benzamide] | 62
33 | CC(C)C(NC(=O)OCC1c2ccccc2-c2ccccc21)C(=O)NC1CCc2nc(NC(=O)c3cccs3)ncc2C1 (stereo not shown) [Example 139, (2-methyl-1-{2-[(thiophene-2-carbonyl)-amino]-5,6,7,8-tetrahydro-quinazolin-6-ylcarbamoyl}-propyl)-carbamic acid 9H-fluoren-9-ylmethyl ester] | 62
34 | CC(C)(C)c1ccc(C(=O)Nc2ncc3c(n2)CCN(C(=O)c2csc4ccccc24)C3)cc1 [Example 184, N-[6-(benzo[b]thiophene-3-carbonyl)-5,6,7,8-tetrahydro-pyrido[4,3-d]pyrimidin-2-yl]-4-tert-butyl-benzamide] | 87
